System: HCT 116 (colon)
Test: Human xenograft model, tumor growth inhibition
Type: in vivo, female athymic nude mice
Conditions: A8 50 mg/kg po qd x 14 + vehicle (saline) iv D1,8,15
Experimental: To assess in vivo antitumor activity in human xenograft models, female athymic nude mice, 12 to 14 weeks of age, were implanted subcutaneously in the flank with human cancer cells. When the tumors reached approximately 100 mm^3 in size, the mice were pair-matched into various treatment groups. For oral administration, compounds were dissolved in a mixture of 0.5% methylcellulose and 0.1% Tween 80 and administered by gavage to the tumor-bearing mice. For i.v.andi.p..administration, compounds were dissolved in 0.9% NaCI and for the i.v. administration, the compound was administered via the tail vein.
Percent tumor growth inhibition (%TGI) was calculated as %TGI = (Cday a−Tday a)/(Cday a−Cday 1) × 100 [formula]
Where C is the median tumor volume of the control group, T is the median tumor volume of the treatment group, and day a is the day of assessment.
It is evident that the combination of a benzimidazole based anti-cancer agent such as Compound (A8) with the different anti-cancer agents enhanced the anti-tumor effect as compared to administering either of the drug on its own. Table 5: Examples of combination of Compound (A8) and anti-cancer agents in in vivo cancer models

For `CCCCc1nc2cc(/C=C/C(=O)NO)ccc2n1CCN(CC)CC` [Compound A8, 3-[2-Butyl-1-(2-diethylamino-ethyl)-1H-benzimidazol-5-yl]-N-hydroxy-acrylamide], the “%TGI at Day 15” value was 64%.
